Test results: PMC11478334, “Quaternized Curcumin Derivative—Synthesis, Physicochemical Characteristics, and Photocytotoxicity, Including Antibacterial Activity after Irradiation with Blue Light” (Molecules, 2024)
Read-outs that look alike come from different tables or passages of the source.

Assays:
Aliivibrio fischeri = assay: Microtox acute toxicity test; assay type: cell-based; details: tested at 1, 10 and 100 µM
Description: All studied compounds were subjected to a Microtox acute toxicity test. The test is based on bioluminescent Aliivibrio fischeri bacteria, which are very sensitive to the presence of toxic substances. Changes in the toxicity of the environment surrounding the bacterium influence its respiratory processes and translate into the emitted bioluminescence intensity. Therefore, in contact with a toxic substance at a specific concentration, a linear decrease in luminescence is observed. Dimethylsulfoxide was used as a solubilizer of studied compounds in amounts not exceeding 1% v/v. To determine the effect of the solvent alone, 1% DMSO solution in water was also tested.
The acute toxicity of the tested curcumionoids was investigated on a Modern Water Microtox Model 500 apparatus equipped with Modern Water MicrotoxOmni 4.2 software, according to the 81.9% screening test procedure provided by the manufacturer (Modern Water, London, UK). All the reagents and solutions (Microtox Acute Reagent, Microtox Diluent, and Microtox Osmotic Adjusting Solution) were purchased from Tigret (Warsaw, Poland). Solutions of the tested compounds were prepared using DMSO and deionized water. […] Each compound was tested at three final concentrations (1 µM, 10 µM, and 100 µM) and at two time points: 5 min and 15 min. The change in the bacterial bioluminescence was monitored after the addition of the sample solution and compared to the negative control.

[1] = cited from earlier work
[2] = design: method as in doi:10.1016/j.synthmet.2008.06.007; details: TTF column, cited from earlier work
S. aureus = details: cited from earlier work
P. aeruginosa = details: 50 µg/mL; 670 nm; 97.65 J/cm^2; 5 min; cited from earlier work

SMILES: COc1cc(C=CC2=CC(C=Cc3ccc(O)c(OC)c3)=[O+][B-](F)(F)O2)ccc1O [curcumin–BF2 complex, reference compound]
- acute toxicity / ecotoxicity verdict (Aliivibrio fischeri): toxic at every concentration tested

SMILES: [Zn+2].c1ccc2c(c1)-c1nc-2nc2[n-]c(nc3nc([n-]c4nc(n1)-c1ccccc1-4)-c1ccccc1-3)c1ccccc21 [ZnPc, zinc(II) phthalocyanine]
- 10^−5 Φp (photodecomposition quantum yield) ([1]; DMF): 1.02 [38] 10^−5
- ΦP (photodecomposition quantum yield) ([1]; DMF): 10.2 × 10^−6
- 10^−5 Φp (photodecomposition quantum yield) ([1]; DMSO): 0.35 [39] 10^−5
- ΦP (photodecomposition quantum yield) ([1]; DMSO): 3.5 × 10^−6
- singlet oxygen quantum yield ([2]; DMF): 0.56 [39]
- singlet oxygen quantum yield ([2]; DMSO): 0.67 [39]

SMILES: O=C([O-])c1c(Cl)c(Cl)c(Cl)c(Cl)c1-c1c2cc(I)c(=O)c(I)c-2oc2c(I)c([O-])c(I)cc12.[Na+].[Na+] [Rose bengal]
- Efficiency (log reduction) (S. aureus; 0.31 µg/mL, 515 nm, 5.8 mW/cm^2, 37 J/cm^3): 6 log
- Efficiency (log reduction) (S. aureus; 0.62 µg/mL, 515 nm, 5.8 mW/cm^2, 18 J/cm^2): 6 log

SMILES: Cc1cc2nc3ccc(N(C)C)cc3[s+]c2cc1N.[Cl-] [Toluidine blue]
- Efficiency (log reduction) (S. aureus; 50 µg/mL, 670 nm, 97.65 J/cm^2, 5 min): 2.66 log
- Efficiency (log reduction) (P. aeruginosa): 2.36 log
